Assay results as given in PubChem BioAssay (NCI).
Where “and” joins values, the source holds several entries; their conditions need not be identical. Equal values may be shown once.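 These data come from cells grown in 96-well plates and exposed to compound for 48 hours at five concentrations. The concentration for 50% growth inhibition is given as GI50. Definition used: TGI = concentration required for complete inhibition of growth.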

Columns and labels:
Assay in all cases: inhibition of tumour cell growth, NCI panel, 48 h
786-0 renal = test system: 786-0 renal
EKVX NSCLC = test system: EKVX NSCLC
HCT-116 colon = test system: HCT-116 colon
KM12 colon = test system: KM12 colon
NCI-H226 lung = test system: NCI-H226 lung
OVCAR-4 ovarian = test system: OVCAR-4 ovarian
SK-MEL-5 melanoma = test system: SK-MEL-5 melanoma
SNB-75 CNS = test system: SNB-75 CNS
SW-620 colon = test system: SW-620 colon
OVCAR-3 ovarian = test system: OVCAR-3 ovarian

| SMILES | GI50 (786-0 renal) [µM] | TGI (786-0 renal) [µM] | GI50 (EKVX NSCLC) [µM] | GI50 (HCT-116 colon) [µM] | TGI (HCT-116 colon) [µM] | GI50 (KM12 colon) [µM] | TGI (KM12 colon) | GI50 (NCI-H226 lung) [µM] | GI50 (OVCAR-4 ovarian) [µM] | TGI (OVCAR-4 ovarian) [µM] | GI50 (SK-MEL-5 melanoma) [µM] | GI50 (SNB-75 CNS) [µM] | TGI (SNB-75 CNS) [µM] | GI50 (SW-620 colon) [µM] | TGI (SW-620 colon) [µM] | TGI (EKVX NSCLC) [µM] | TGI (NCI-H226 lung) [µM] | TGI (SK-MEL-5 melanoma) [µM] | TGI (OVCAR-3 ovarian) [µM] | GI50 (OVCAR-3 ovarian) [µM] |
| --- | --- | --- | --- | --- | --- | --- | --- | --- | --- | --- | --- | --- | --- | --- | --- | --- | --- | --- | --- | --- |
| COc1cccc(-c2cc(=O)c3cc(N4CCN(C)CC4)ccc3[nH]2)c1 | 5.28 | > 100 | 2.96 | 0.92 | > 100 | 1.35 | 4.81 µM and 45.4 µM | 2.83 | 10.6 | > 100 | 0.766 | 0.612 | 65.1 | 0.755 | > 100 | – | – | – | – | – |
| C#Cc1cccc(NC(=O)/C=C\C(=O)O)c1 | – | > 100 | – | – | > 100 | – | > 100 µM | – | – | > 100 | – | – | > 100 | – | > 100 | > 100 | > 100 | > 100 | – | – |
| COc1ccc(N(CC(=O)O)N=O)cc1 | – | > 100 | – | – | > 100 | – | > 100 µM | – | – | > 100 | – | – | – | – | > 100 | > 100 | > 100 | > 100 | > 100 | – |
| Cc1ccccc1Nc1cc(O)c2c(=O)cc(-c3ccccc3)oc2c1 | 4.42 | > 100 | 3.35 | 3.36 | > 100 | 2.38 | > 100 µM | 4.11 | 3.38 | > 100 | – | – | – | 0.734 | > 100 | > 100 | > 100 | – | 4.91 | 1.72 |
| COS(=O)c1cc(Cl)cc(Cl)c1OC(=O)CSSCC(=O)Oc1c(Cl)cc(Cl)cc1S(=O)OC (configuration not stated) | – | 54.5 | – | – | – | – | 36.2 µM | – | – | 51.6 | – | – | 80.1 | – | 58.4 | 41.9 | – | 32.4 | 86.4 | – |
